Reference: the NIST ThermoML archive (doi:10.1016/j.fluid.2014.09.014)

Assay: refractive index (other wavelength) (dimensionless); xn = mol fraction of the nth substance listed
Settings: 101 kPa, Liquid, Standard Abbe refractometry

CC(C)OC(C)C [diisopropyl ether] + CC(C)O
Settings | refractive index
308.15 K, Wavelength=632.8 nm, x1 = 0.8864 | 1.36026
308.15 K, Wavelength=632.8 nm, x1 = 0.8903 | 1.35981
308.15 K, Wavelength=632.8 nm, x1 = 0.9113 | 1.35957
308.15 K, Wavelength=632.8 nm, x1 = 0.9547 | 1.3591
308.15 K, Wavelength=632.8 nm, x1 = 0.973 | 1.35877
308.15 K, Wavelength=632.8 nm, x1 = 0.9771 | 1.35864
308.15 K, Wavelength=632.8 nm, x1 = 1 | 1.35853
308.15 K, Wavelength=644 nm, x1 = 0.0277 | 1.36899
308.15 K, Wavelength=644 nm, x1 = 0.0507 | 1.36894
308.15 K, Wavelength=644 nm, x1 = 0.051 | 1.36887
308.15 K, Wavelength=644 nm, x1 = 0.0717 | 1.36856
308.15 K, Wavelength=644 nm, x1 = 0.1528 | 1.3679
308.15 K, Wavelength=644 nm, x1 = 0.1553 | 1.3679
308.15 K, Wavelength=644 nm, x1 = 0.1938 | 1.36761
308.15 K, Wavelength=644 nm, x1 = 0.2029 | 1.36718
308.15 K, Wavelength=644 nm, x1 = 0.245 | 1.36676
308.15 K, Wavelength=644 nm, x1 = 0.297 | 1.36601
308.15 K, Wavelength=644 nm, x1 = 0.2973 | 1.36623
308.15 K, Wavelength=644 nm, x1 = 0.3068 | 1.36594
308.15 K, Wavelength=644 nm, x1 = 0.398 | 1.36466
308.15 K, Wavelength=644 nm, x1 = 0.4609 | 1.36397
308.15 K, Wavelength=644 nm, x1 = 0.5434 | 1.36309
308.15 K, Wavelength=644 nm, x1 = 0.6032 | 1.36241
308.15 K, Wavelength=644 nm, x1 = 0.6371 | 1.36205
308.15 K, Wavelength=644 nm, x1 = 0.701 | 1.36135
308.15 K, Wavelength=644 nm, x1 = 0.754 | 1.36096
308.15 K, Wavelength=644 nm, x1 = 0.791 | 1.36054
308.15 K, Wavelength=644 nm, x1 = 0.8296 | 1.36018
308.15 K, Wavelength=644 nm, x1 = 0.8864 | 1.35996
308.15 K, Wavelength=644 nm, x1 = 0.8903 | 1.35952
308.15 K, Wavelength=644 nm, x1 = 0.9113 | 1.35928
308.15 K, Wavelength=644 nm, x1 = 0.9547 | 1.3588
308.15 K, Wavelength=644 nm, x1 = 0.973 | 1.35847
308.15 K, Wavelength=644 nm, x1 = 0.9771 | 1.35835
308.15 K, Wavelength=644 nm, x1 = 1 | 1.35823
308.15 K, Wavelength=706.5 nm, x1 = 0.0277 | 1.36755
308.15 K, Wavelength=706.5 nm, x1 = 0.0507 | 1.36748
308.15 K, Wavelength=706.5 nm, x1 = 0.051 | 1.36742
308.15 K, Wavelength=706.5 nm, x1 = 0.0717 | 1.36711
308.15 K, Wavelength=706.5 nm, x1 = 0.1528 | 1.36646
308.15 K, Wavelength=706.5 nm, x1 = 0.1553 | 1.36646
308.15 K, Wavelength=706.5 nm, x1 = 0.1938 | 1.36617
308.15 K, Wavelength=706.5 nm, x1 = 0.2029 | 1.36573
308.15 K, Wavelength=706.5 nm, x1 = 0.245 | 1.36532
308.15 K, Wavelength=706.5 nm, x1 = 0.297 | 1.36457
308.15 K, Wavelength=706.5 nm, x1 = 0.2973 | 1.3648
308.15 K, Wavelength=706.5 nm, x1 = 0.3068 | 1.36451
308.15 K, Wavelength=706.5 nm, x1 = 0.398 | 1.36323
308.15 K, Wavelength=706.5 nm, x1 = 0.4609 | 1.36254
308.15 K, Wavelength=706.5 nm, x1 = 0.5434 | 1.36168
308.15 K, Wavelength=706.5 nm, x1 = 0.6032 | 1.361
308.15 K, Wavelength=706.5 nm, x1 = 0.6371 | 1.36064
308.15 K, Wavelength=706.5 nm, x1 = 0.701 | 1.35993
308.15 K, Wavelength=706.5 nm, x1 = 0.754 | 1.35954
308.15 K, Wavelength=706.5 nm, x1 = 0.791 | 1.35911
308.15 K, Wavelength=706.5 nm, x1 = 0.8296 | 1.35877
308.15 K, Wavelength=706.5 nm, x1 = 0.8864 | 1.35855
308.15 K, Wavelength=706.5 nm, x1 = 0.8903 | 1.3581
308.15 K, Wavelength=706.5 nm, x1 = 0.9113 | 1.35786
308.15 K, Wavelength=706.5 nm, x1 = 0.9547 | 1.35741
308.15 K, Wavelength=706.5 nm, x1 = 0.973 | 1.35707
308.15 K, Wavelength=706.5 nm, x1 = 0.9771 | 1.35694
308.15 K, Wavelength=706.5 nm, x1 = 1 | 1.35683
313.15 K, Wavelength=404.7 nm, x1 = 0.0277 | 1.37904
313.15 K, Wavelength=404.7 nm, x1 = 0.0507 | 1.37898
313.15 K, Wavelength=404.7 nm, x1 = 0.051 | 1.37891
313.15 K, Wavelength=404.7 nm, x1 = 0.0717 | 1.37855
313.15 K, Wavelength=404.7 nm, x1 = 0.1528 | 1.37787
313.15 K, Wavelength=404.7 nm, x1 = 0.1553 | 1.37787
313.15 K, Wavelength=404.7 nm, x1 = 0.1938 | 1.37761
313.15 K, Wavelength=404.7 nm, x1 = 0.2029 | 1.37706
313.15 K, Wavelength=404.7 nm, x1 = 0.245 | 1.37653
313.15 K, Wavelength=404.7 nm, x1 = 0.297 | 1.37571
313.15 K, Wavelength=404.7 nm, x1 = 0.2973 | 1.37596
313.15 K, Wavelength=404.7 nm, x1 = 0.3068 | 1.37567
313.15 K, Wavelength=404.7 nm, x1 = 0.398 | 1.37428
313.15 K, Wavelength=404.7 nm, x1 = 0.4609 | 1.37355
313.15 K, Wavelength=404.7 nm, x1 = 0.5434 | 1.37263
313.15 K, Wavelength=404.7 nm, x1 = 0.6032 | 1.37187
313.15 K, Wavelength=404.7 nm, x1 = 0.6371 | 1.37152
313.15 K, Wavelength=404.7 nm, x1 = 0.701 | 1.37074
313.15 K, Wavelength=404.7 nm, x1 = 0.754 | 1.3703
313.15 K, Wavelength=404.7 nm, x1 = 0.791 | 1.36988
313.15 K, Wavelength=404.7 nm, x1 = 0.8296 | 1.36948
313.15 K, Wavelength=404.7 nm, x1 = 0.8864 | 1.36937
313.15 K, Wavelength=404.7 nm, x1 = 0.8903 | 1.3688
313.15 K, Wavelength=404.7 nm, x1 = 0.9113 | 1.36853
313.15 K, Wavelength=404.7 nm, x1 = 0.9547 | 1.36805
313.15 K, Wavelength=404.7 nm, x1 = 0.973 | 1.36771
313.15 K, Wavelength=404.7 nm, x1 = 0.9771 | 1.36756
313.15 K, Wavelength=404.7 nm, x1 = 1 | 1.3674
313.15 K, Wavelength=435.8 nm, x1 = 0.0277 | 1.37606
313.15 K, Wavelength=435.8 nm, x1 = 0.0507 | 1.376
313.15 K, Wavelength=435.8 nm, x1 = 0.051 | 1.37594
